# Measurements reported in US8895242B2, “Single molecule nucleic acid nanoparticles” (The Regents of the University of California, priority 2009, dated 2014).
# B1: C21: panc02-selection clone lacking the … motif, SEQ ID NO:10 (nucleic acid)
# DNA: TGCTTTTTGGAACTCCTGCTAGACGTTAGATGTATCTGACCTTACGACTTCAACTTCCTTCTAAATCTGCCCACAACGATGGTGACGTTGAGTTGGATCC
# modifications: DNA, backbone and methylation of C not given here; rolling circle concatemer folded into DNA nanoparticle
# B2: C50: panc02-selection clone lacking the … motif, SEQ ID NO:11 (nucleic acid)
# DNA: TGCTTTTTGGAACTCCTGCTCAACTTGTGTCCTCTTGAAAGAGTCGGTCATACCTATAAGAATACTTTTATACAGCCAAAGGTGACGTTGAGTTGGATCC
# modifications: DNA, backbone and methylation of C not given here; rolling circle concatemer folded into DNA nanoparticle
# Tests used:
# B16 melanoma = assay: Intra-tumoral injection into B16 melanoma, immunohistochemistry of immune cell recruitment; format: in vivo, mice
# Procedure: FIG. 23 provides data relating to Hp-91(270 μg), pI:C (125 μg), or Pam3Cys (125 μg) injected into B16 melanoma and the mice were sacrificed 24 h after the injection. The tumor was embedded in OCT and frozen sections were stained for Mac 1 (macrophages), CD11c (DCs), and CD3 (T cells) by immuno-histochemistry. Pictures were taken in brightfield at 20×.
# In certain subsets of breast tumors the presence of tumor-associated macrophages is associated with […]. Thus, in order to maximize the anti-tumor immune response we tested two TLR agonists; pI:C (TLR3 agonist) and Pam3Cys (TLR2 agonist), and our immunostimulatory peptides for their ability to recruit immune cells to the tumor. Hp-91, pI:C, or Pam3Cys were injected into B16 melanoma, the mice were sacrificed 24 h after the injection and the tumor was frozen and sections stained for the indicated markers. […] This is a very promising result as Hp-91 will not only contribute to the recruitment of DCs, but also mature the arriving DCs. Thus in the context of antigen release by concurrent local cytotoxic therapy, we expect to create a very favorable environment for the uptake of tumor antigen by DCs and their subsequent activation. In addition, CD8 T cells after being primed in the draining lymph nodes are expected to be recruited in higher numbers to the tumor site via the peptide leading to a strong immune response and tumor killing.
# DNA nanoparticles = assay: Doxorubicin fluorescence quenching on DNA nanoparticles; details: indicates doxorubicin binding to the particles
# From the text: With increasing concentration of Doxorubicin, the DNA nanoparticles become saturated and free Doxorubicin in solution can fluoresce.
# The fluorescence of doxorubicin is quenched with the addition of DNA nanoparticles, indicating doxorubicin binding to the particles (FIG. 44).
# cells = assay: Doxorubicin toxicity to cells with and without untargeted DNA particles; format: cell-based
# Procedure: The IC50 was determined to be 0.1 μg of Doxo for […]. […] Targeted DNA particles may be selected or a targeting moiety added. (2) At the same time, DNA nanoparticles absorbed Doxo, which is good for our purpose of loading DNA with drugs (FIG. 45).
# [1] = tested on: pancreatic cancer cell line panc02; assay: Flow cytometry binding of DNA nanoparticle clones to panc02; format: cell-based, mouse; details: fluorescently labeled
# From the text: FIGS. 57A and 57B summarizes the results of the selection of pancreatic cancer cell line panc02 targeting particles. The mouse pancreatic lines panc02 was panned with a single module DNA nanoparticle library. After the 3rd and 4th round, the selected pool was fluorescently labeled and tested on the target cells by flow cytometry (FIG. 57A). A shift indicating enrichment of binding clones was observed. After the 5th and 6th round, clones were generated from the selected pool and sequenced (TABLE 6). 10 of the 12 sequenced clones contained a specific sequence motif: AATGGGGCG (SEQ ID NO:12). In two of the clones the motif appears in the same frame (C45 and C58). Two independent clones for each we recovered with the sequence of clone 40 and 46.
# [2] = Hp-91 270 μg, pI:C 125 μg, Pam3Cys 125 μg, 24 h after injection
# [3] = higher dose 500 μg, data not shown
molecule,measurement,setting,value
CCCCCCCCCCCCCCCC(=O)N[C@@H](CSC[C@@H](COC(=O)CCCCCCCCCCCCCCC)OC(=O)CCCCCCCCCCCCCCC)C(=O)O [Pam3Cys],recruitment of DCs (CD11c+) into the tumor,B16 melanoma; [2],only Hp-91
same,recruitment of T cells (CD3+) into the tumor,B16 melanoma; [2],only Hp-91
same,recruitment of macrophages into the tumor,B16 melanoma; [2],caused recruitment of macrophages
same,DC recruitment into the tumor,B16 melanoma; [3],no T cell and DC recruitment
same,T cell recruitment into the tumor,B16 melanoma; [3],no T cell
"COc1cccc2c1C(=O)c1c(O)c3c(c(O)c1C2=O)C[C@@](O)(C(=O)CO)C[C@@H]3O[C@H]1C[C@H](N)[C@H](O)[C@H](C)O1 [Doxo, Doxorubicin]",doxorubicin fluorescence on addition of DNA nanoparticles,DNA nanoparticles; listed as Doxorubicin,fluorescence is quenched
same,doxorubicin fluorescence on addition of DNA nanoparticles,DNA nanoparticles; listed as doxorubicin,quenched
same,IC50,cells,0.1 µg
B1,binding to panc02,[1],do not
B2,binding to panc02,[1],do not
